In brackets after ≈: the same amount, converted by molar mass. Where a SMILES comes first, the peptide text is derived from it. Bridges are numbered along the chain shown (N, C = ends). Roman numbers before positions name the chains, in order. [ ]: non-standard residue; d: D form. Tle = CC(C)(C)[C@H](N)C(=O)O; dDab = NCC[C@@H](N)C(=O)O; hSer = N[C@@H](CCO)C(=O)O; Orn = NCCC[C@H](N)C(=O)O; Dab = NCC[C@H](N)C(=O)O; Dap = NC[C@H](N)C(=O)O
Key:
Type in all cases: cell-based
[1] = tested on: Acinetobacter baumannii 872842; settings: 872842
Outline: (§1)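 MIC in μg/mL, read as absence of visible growth after 18-20 h incubation at 35° C, by standard CLSI microdilution. Peptides tested in two-fold serial dilution in cation-adjusted MH-II broth containing 0.002% (final) Polysorbate 80, against roughly 10^6 CFU/mL inocula.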

[2] = tested on: Acinetobacter baumannii DSM 30008; settings: DSM 30008
Outline: as §1

[3] = tested on: Enterobacter cloacae 848840; settings: 848840
Outline: as §1

Escherichia coli 926415 = settings: 926415
Outline: as §1

[4] = tested on: Escherichia coli ATCC 25922; settings: ATCC 25922
Outline: as §1

[5] = tested on: Klebsiella pneumoniae 968733; settings: 968733
Outline: as §1

[6] = tested on: Klebsiella pneumoniae SSI #3010; settings: SSI #3010
Outline: as §1

[7] = tested on: Pseudomonas aeruginosa ATCC 27853; settings: ATCC 27853
Outline: as §1

[8] = tested on: human red blood cells (hRBC); test: Hemolysis; settings: red cells of human, 1 h, 200
Outline: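 Percent hemolysis relative to 2% Triton X-100 (100%) and PBS/10% water (0%), from blank-corrected OD540 of diluted supernatants. Peptides tested at 200 μg/mL against 20% (v/v) washed human erythrocytes, 1 h, 37° C, shaking at 300 rpm.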

Row | MIC [1] [µg/mL] | MIC [2] [µg/mL] | MIC [3] [µg/mL] | MIC (Escherichia coli 926415) [µg/mL] | MIC [4] [µg/mL] | MIC [5] [µg/mL] | MIC [6] [µg/mL] | MIC [7] [µg/mL] | Acinetobacter baumannii DSM 30008 MIC [2] [µg/mL] | Escherichia coli ATCC 25922 MIC [4] [µg/mL] | Klebsiella pneumoniae SSI #3010 MIC [6] [µg/mL] | Pseudomonas aeruginosa ATCC 27853 MIC [7] [µg/mL] | Structure (SMILES) | Hemolysis at 200 μg/mL [8] [%]
1 | 0.0625 (≈ 0.0264 µM) | 0.0625 (≈ 0.0264 µM) | 0.125 (≈ 0.0528 µM) | 0.125 (≈ 0.0528 µM) | 0.0625 (≈ 0.0264 µM) | 0.25 (≈ 0.106 µM) | 0.125 (≈ 0.0528 µM) | 0.25 (≈ 0.106 µM) | – | – | – | – | CC(=O)N[C@@H](Cc1ccccc1)C(=O)N[C@H]1CCCNC(=O)[C@@H]([C@H](C)O)NC(=O)[C@H](C(C)(C)C)NC(=O)[C@H](CO)NC(=O)[C@H](Cc2c[nH]c3ccccc23)NC(=O)[C@H](CCO)NC(=O)[C@@H](CCN)NC(=O)[C@H](CCC(=O)N[C@@H](CCN)C(=O)N[C@H](C(=O)N[C@@H](CN)C(=O)N[C@H]2CCNC(=O)[C@H]([C@@H](C)O)NC(=O)[C@H](CCN)NC(=O)[C@H](CCN)NC(=O)[C@H](CC(C)C)NC(=O)[C@@H](CC(C)C)NC(=O)[C@H](CCN)NC2=O)[C@@H](C)O)NC(=O)[C@H](CN)NC(=O)[C@H](Cc2ccc(O)cc2)NC1=O [Ex. 36] (I: Ac-F[Orn]Y[Dap]E[dDab][hSer]WS[Tle][dT] / II: [Dab]T[Dap][Dab][Dab][dL]L[Dab][Dab]T; lactam I:2-I:C, II:4-II:C; amide I:5-II:N) | <1
2 | 0.125 (≈ 0.0493 µM) | 0.0625 (≈ 0.0246 µM) | 0.25 (≈ 0.0985 µM) | 0.0625 (≈ 0.0246 µM) | 0.125 (≈ 0.0493 µM) | 0.25 (≈ 0.0985 µM) | 0.125 (≈ 0.0493 µM) | 0.25 (≈ 0.0985 µM) | – | – | – | – | CC(=O)N[C@@H](CCN)C(=O)N[C@@H](CC(C)C)C(=O)N[C@H](C(=O)N[C@@H](Cc1ccc(O)cc1)C(=O)N[C@H]1CSSC[C@@H](C(=O)N[C@H](C(=O)N[C@@H](C)C(=O)N[C@H](C(N)=O)C(C)C)C(C)(C)C)NC(=O)[C@H](Cc2c[nH]c3ccccc23)NC(=O)[C@H](CCN)NC(=O)[C@@H](CCN)NC(=O)[C@H](CCC(=O)N[C@@H](CCN)C(=O)N[C@H](C(=O)N[C@@H](CN)C(=O)N[C@H]2CCNC(=O)[C@H]([C@@H](C)O)NC(=O)[C@H](CCN)NC(=O)[C@H](CCN)NC(=O)[C@H](CC(C)C)NC(=O)[C@@H](CC(C)C)NC(=O)[C@H](CCN)NC2=O)[C@@H](C)O)NC1=O)[C@@H](C)O [Ex. 239] (I: Ac-[Dab]LTYCE[dDab][Dab]WC[Tle]AV-NH2 / II: [Dab]T[Dap][Dab][Dab][dL]L[Dab][Dab]T; disulfide I:5-I:10; amide I:6-II:N; lactam II:4-II:C) | 1
3 | 1 (≈ 0.418 µM) | – | 2 (≈ 0.836 µM) | 4 (≈ 1.67 µM) | – | 8 (≈ 3.34 µM) | – | – | 0.5 | 0.0625 | 0.125 | 0.25 | CC(=O)N[C@H](C(=O)N[C@H]1CNC(=O)CC[C@@H](C(=O)N[C@@H](CO)C(N)=O)NC(=O)[C@H](C(C)C)NC(=O)[C@H](CO)NC(=O)[C@H](Cc2c[nH]c3ccccc23)NC(=O)[C@H](CO)NC(=O)[C@@H](CCN)NC(=O)[C@H](CCC(=O)N[C@@H](CCN)C(=O)N[C@H](C(=O)N[C@@H](CN)C(=O)N[C@H]2CCNC(=O)[C@H]([C@@H](C)O)NC(=O)[C@H](CCN)NC(=O)[C@H](CCN)NC(=O)[C@H](CC(C)C)NC(=O)[C@@H](CC(C)C)NC(=O)[C@H](CCN)NC2=O)[C@@H](C)O)NC(=O)[C@H](CCN)NC(=O)[C@H](Cc2ccc(O)cc2)NC1=O)C(C)C [Ex. 320] (I: Ac-V[Dap]Y[Dab]E[dDab]SWSVES-NH2 / II: [Dab]T[Dap][Dab][Dab][dL]L[Dab][Dab]T; lactam I:2-I:11, II:4-II:C; amide I:5-II:N) | <1

Source: US11629171B2, “Beta-hairpin peptidomimetics” (POLYPHOR AG, priority 2017, dated 2023)
